Holding throughout (assay type): biochemical
In one assay the target is JAK3 (Homo sapiens (Human), UniProt P52333). As to the kind of experiment: JAK3 LANCE Ultra kinase assay. Background: Time-resolved FRET reads energy transfer from a long-lived donor to a nearby acceptor.
The target of a further assay is JAK2 (Homo sapiens (Human), UniProt O60674). As to the kind of experiment: JAK2 LANCE Ultra kinase assay. As to conditions: 12 uM ATP.
The next assay concerns the target JAK1 (Homo sapiens (Human), UniProt P23458). As to the kind of experiment: JAK1 LANCE Ultra kinase assay. As to conditions: for IC50: 38 uM ATP; for JAK2/JAK1: ratio of IC50 JAK2 to IC50 JAK1. How it is done:
Inhibition test on activity of JAK kinase in vitro was carried out by the following methods.
JAK1 LANCE® Ultra assay, JAK2 LANCE® Ultra assay and JAK3 LANCE® Ultra assay were used to carry out the test separately, and kits of the above assays were supplied by PerkinElmer. […]
JAK1, JAK2 and JAK3 kinase, ATP and substrates were dissolved and diluted with buffers.
A test liquid was 2 nM Eu-W1024 anti-phosphotyrosine (PerkinElmer, AD0069). A stop buffer was 10 mM edetic acid (Intech, 1842C505).
2.5 μl of an 8-fold solution of the compound and 5 μl of a 4-fold solution of JAK1 or JAK2 or JAK3 kinase were added into a 384-well plate, respectively, and reacted for 10 minutes at room temperature. 2.5 μl of an 8-fold solution of ULight™-JAK-1 peptide/ATP was added and reacted for 90 minutes at room temperature. Finally, 5 μl of 4-fold edetic acid stop buffer and 5 μl of 4-fold test liquid of Eu-W1024 anti-phosphotyrosine were added and incubated for 60 minutes.
According to the formula: percentage of inhibition rate=(maximum value−transform value)/(maximum value−minimum value)×100, inhibition rate of each compound at various concentrations was calculated. The maximum value was the reference value of dimethyl sulfoxide added into the well plate, the minimum value was the blank value, and the transform value is the value obtained by the well of each compound. The IC50 values of the corresponding compounds were then obtained by fitting by using the XLFit fitting tool in excel.

Like-named read-outs stand apart in the source and are kept apart here.

JAK2, sequence (O60674 whole entry): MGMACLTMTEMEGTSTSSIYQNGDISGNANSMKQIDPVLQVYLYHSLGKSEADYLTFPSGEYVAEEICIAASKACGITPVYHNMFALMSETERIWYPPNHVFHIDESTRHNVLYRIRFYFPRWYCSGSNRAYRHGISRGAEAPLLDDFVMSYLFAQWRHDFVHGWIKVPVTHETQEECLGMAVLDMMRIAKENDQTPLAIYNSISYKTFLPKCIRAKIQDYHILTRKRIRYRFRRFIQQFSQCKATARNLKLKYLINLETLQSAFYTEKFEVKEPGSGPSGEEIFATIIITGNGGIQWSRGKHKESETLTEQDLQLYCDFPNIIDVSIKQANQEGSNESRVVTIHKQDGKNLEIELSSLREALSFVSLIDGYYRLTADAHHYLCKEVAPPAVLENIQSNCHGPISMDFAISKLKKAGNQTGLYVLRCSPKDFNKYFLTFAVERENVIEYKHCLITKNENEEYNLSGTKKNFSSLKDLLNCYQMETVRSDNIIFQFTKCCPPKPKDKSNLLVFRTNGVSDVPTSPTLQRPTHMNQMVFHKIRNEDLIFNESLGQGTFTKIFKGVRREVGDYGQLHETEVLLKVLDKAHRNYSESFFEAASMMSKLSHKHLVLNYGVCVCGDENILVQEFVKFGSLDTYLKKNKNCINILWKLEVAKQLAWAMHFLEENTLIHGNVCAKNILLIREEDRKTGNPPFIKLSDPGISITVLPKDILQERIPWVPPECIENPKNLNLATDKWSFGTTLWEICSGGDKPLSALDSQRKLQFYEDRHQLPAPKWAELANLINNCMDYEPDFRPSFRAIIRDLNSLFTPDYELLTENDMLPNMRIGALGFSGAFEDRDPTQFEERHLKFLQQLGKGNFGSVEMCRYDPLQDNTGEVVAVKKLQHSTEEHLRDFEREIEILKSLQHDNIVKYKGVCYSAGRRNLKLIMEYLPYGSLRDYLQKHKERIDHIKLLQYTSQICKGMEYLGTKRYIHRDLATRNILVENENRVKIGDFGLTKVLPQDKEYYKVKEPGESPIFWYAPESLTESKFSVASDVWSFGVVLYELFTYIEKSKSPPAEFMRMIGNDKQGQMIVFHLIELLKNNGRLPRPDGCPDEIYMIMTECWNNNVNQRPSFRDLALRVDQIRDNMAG
JAK1, sequence (P23458 whole entry): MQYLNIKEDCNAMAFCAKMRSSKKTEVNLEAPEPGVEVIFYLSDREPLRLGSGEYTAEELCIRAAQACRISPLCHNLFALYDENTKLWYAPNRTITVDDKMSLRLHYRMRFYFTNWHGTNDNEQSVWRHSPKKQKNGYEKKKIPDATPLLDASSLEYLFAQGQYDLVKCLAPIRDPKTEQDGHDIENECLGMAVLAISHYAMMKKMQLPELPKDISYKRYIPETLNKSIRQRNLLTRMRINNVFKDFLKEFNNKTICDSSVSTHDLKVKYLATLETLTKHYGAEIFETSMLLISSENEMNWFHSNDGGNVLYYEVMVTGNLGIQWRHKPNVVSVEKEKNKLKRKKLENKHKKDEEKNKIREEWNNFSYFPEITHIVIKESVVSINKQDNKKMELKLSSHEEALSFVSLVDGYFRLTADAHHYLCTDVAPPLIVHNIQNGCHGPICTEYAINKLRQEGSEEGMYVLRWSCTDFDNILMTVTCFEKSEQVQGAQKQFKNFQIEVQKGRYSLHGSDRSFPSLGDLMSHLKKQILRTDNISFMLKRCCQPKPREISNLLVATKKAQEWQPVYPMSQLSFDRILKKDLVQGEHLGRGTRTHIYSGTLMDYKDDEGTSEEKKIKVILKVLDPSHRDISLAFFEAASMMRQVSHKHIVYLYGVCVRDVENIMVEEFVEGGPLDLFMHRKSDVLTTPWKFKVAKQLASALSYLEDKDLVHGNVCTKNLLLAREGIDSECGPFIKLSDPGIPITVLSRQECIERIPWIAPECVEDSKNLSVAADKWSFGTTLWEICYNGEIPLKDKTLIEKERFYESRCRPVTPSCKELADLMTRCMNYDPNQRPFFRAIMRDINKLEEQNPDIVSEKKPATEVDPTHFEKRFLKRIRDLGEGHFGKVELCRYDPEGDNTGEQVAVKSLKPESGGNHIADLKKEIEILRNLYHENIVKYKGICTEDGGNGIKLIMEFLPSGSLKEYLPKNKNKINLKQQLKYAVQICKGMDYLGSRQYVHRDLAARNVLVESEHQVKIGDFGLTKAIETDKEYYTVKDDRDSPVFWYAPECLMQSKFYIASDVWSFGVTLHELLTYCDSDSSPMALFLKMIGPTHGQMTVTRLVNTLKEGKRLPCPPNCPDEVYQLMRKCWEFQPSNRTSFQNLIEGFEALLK
JAK3, sequence (P52333 whole entry): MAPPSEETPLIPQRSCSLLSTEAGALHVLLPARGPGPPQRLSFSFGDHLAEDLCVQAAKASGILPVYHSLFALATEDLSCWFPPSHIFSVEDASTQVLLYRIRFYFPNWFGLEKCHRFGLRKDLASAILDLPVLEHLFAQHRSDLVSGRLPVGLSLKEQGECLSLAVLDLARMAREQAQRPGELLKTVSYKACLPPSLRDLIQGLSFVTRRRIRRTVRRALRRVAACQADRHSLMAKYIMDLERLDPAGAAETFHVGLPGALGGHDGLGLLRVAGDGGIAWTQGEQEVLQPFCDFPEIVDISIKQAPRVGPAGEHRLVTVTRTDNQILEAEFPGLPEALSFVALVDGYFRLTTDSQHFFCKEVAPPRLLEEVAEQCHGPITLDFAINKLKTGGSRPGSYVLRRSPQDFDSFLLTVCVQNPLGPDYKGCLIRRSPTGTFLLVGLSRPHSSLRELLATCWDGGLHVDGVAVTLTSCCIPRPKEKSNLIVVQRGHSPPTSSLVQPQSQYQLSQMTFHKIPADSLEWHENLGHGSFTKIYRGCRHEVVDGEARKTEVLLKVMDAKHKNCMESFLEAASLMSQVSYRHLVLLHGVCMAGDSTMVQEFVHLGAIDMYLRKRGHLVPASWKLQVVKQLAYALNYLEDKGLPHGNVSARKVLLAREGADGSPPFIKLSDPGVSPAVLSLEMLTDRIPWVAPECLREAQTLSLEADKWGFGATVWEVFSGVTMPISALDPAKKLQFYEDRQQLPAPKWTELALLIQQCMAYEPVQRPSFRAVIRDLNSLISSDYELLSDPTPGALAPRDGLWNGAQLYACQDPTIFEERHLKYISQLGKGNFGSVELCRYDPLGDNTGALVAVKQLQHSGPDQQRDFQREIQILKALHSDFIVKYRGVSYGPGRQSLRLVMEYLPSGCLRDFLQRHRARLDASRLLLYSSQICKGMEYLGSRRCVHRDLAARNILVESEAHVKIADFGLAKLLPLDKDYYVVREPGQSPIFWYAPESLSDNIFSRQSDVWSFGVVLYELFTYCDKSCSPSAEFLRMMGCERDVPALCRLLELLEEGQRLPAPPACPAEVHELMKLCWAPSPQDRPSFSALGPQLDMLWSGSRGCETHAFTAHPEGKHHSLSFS

As for `C[C@@H]1CN(C(=O)CC#N)C[C@@H]1N(C)c1c(C#N)cnc2[nH]ccc12` (relative stereo) [Compound H05, (cis)-4-{[4-methyl-1-(2-cyanoacetyl)pyrrolidin-3-yl]-methyl-amino}-1H-pyrrolo[2,3-b]pyridin-5-carbonitrile], the IC50 – broadly, the concentration at which inhibition is half-maximal – turned out to be 256 nM against JAK3 (4 uM ATP), 12.3 nM on JAK2 and 7.86 nM at JAK1. At JAK1, the JAK2/JAK1 worked out at 1.56.

As to `C[C@@H]1CN(S(=O)(=O)C[C@H]2CC[C@H](N(C)c3c(C#N)cnc4[nH]ccc34)CC2)C[C@H]1CO` (relative stereo) [Compound H66, 4-((trans-4-(((trans-3-(hydroxymethyl)-4-methylpyrrolidin-1-yl)sulfonyl)methyl)cyclohexyl)(methyl)amino)-1H-pyrrolo[2,3-b]pyridin-5-carbonitrile], the IC50 against JAK3 (4 uM ATP) is 197 nM; at JAK2, 126 nM; at JAK1, 8.9 nM. In addition, the JAK2/JAK1 on JAK1 amounted to 14.16.

As for `CC(C)[C@@H]1CN(C(=O)NCC(F)(F)F)C[C@@H]1Nc1c(C#N)cnc2[nH]ccc12` (relative stereo) [Compound H73, (cis)-3-((5-cyano-1H-pyrrolo[2,3-b]pyridin-4-yl)amino)-4-isopropyl-N-(2,2,2-trifluoroethyl)pyrrolidin-1-carboxamide], the values for the IC50 at JAK3 (4 uM ATP), against JAK2 and against JAK1 were 157 nM, 30 nM and 4.9 nM, respectively. The JAK2/JAK1 on JAK1 worked out at 6.12.

As for `CC[C@@H]1CN(C(=O)NC(C)C)C[C@@H]1Nc1c(C#N)cnc2[nH]ccc12` (relative stereo) [Compound H75], the IC50 against JAK3 turned out to be 89 nM; against JAK2, 17.3 nM.

Take `CC[C@@H]1CN(S(=O)(=O)CCC(F)(F)F)C[C@@H]1Nc1c(C#N)cnc2[nH]ccc12` (relative stereo) [Compound H76, 4-(((cis)-4-ethyl-1-((3,3,3-trifluoropropyl)sulfonyl)pyrrolidin-3-yl)amino)-1H-pyrrolo[2,3-b]pyridin-5-carbonitrile]: the IC50 against JAK3 (4 uM ATP) is 91 nM; at JAK2 it was 7.8 nM; against JAK1, 0.95 nM. Besides, the JAK2/JAK1 at JAK1 amounted to 8.21.

Regarding `CC[C@@H]1CN(C(=O)CCC(F)(F)F)C[C@@H]1Nc1c(C#N)cnc2[nH]ccc12` (relative stereo) [Compound H77, 4-(((cis)-4-ethyl-1-(4,4,4-trifluorobutyryl)pyrrolidin-3-yl)amino)-1H-pyrrolo[2,3-b]pyridin-5-carbonitrile], the IC50 against JAK3 (4 uM ATP) came out at 273 nM; against JAK2, 49 nM; against JAK1, 4.2 nM. Also, the JAK2/JAK1 on JAK1 stood at 11.67.

On to `CC[C@@H]1CN(C(=O)NCC(C)C)C[C@@H]1Nc1c(C#N)cnc2[nH]ccc12` (relative stereo) [Compound H79, (cis)-3-((5-cyano-1H-pyrrolo[2,3-b]pyridin-4-yl)amino)-4-ethyl-N-isobutylpyrrolidin-1-carboxamide], for which the IC50 came to 59 nM against JAK3 (4 uM ATP), 6.5 nM on JAK2 and 0.96 nM on JAK1. The JAK2/JAK1 at JAK1 came to 6.77.

Turning to `CC[C@@H]1CN(C(=O)CCC#N)C[C@@H]1Nc1c(C#N)cnc2[nH]ccc12` (relative stereo) [Compound H81, 4-(((cis)-1-(3-cyanopropionyl)-4-ethylpyrrolidin-3-yl)amino)-1H-pyrrolo[2,3-b]pyridin-5-carbonitrile], the half-inhibitory concentration (IC50) amounted to 162 nM against JAK3 (4 uM ATP), 117 nM on JAK2 and 9.3 nM at JAK1. Besides, the JAK2/JAK1 on JAK1 is 12.58.

On to `CC[C@@H]1CN(C(=O)NC2CC2)C[C@@H]1Nc1c(C#N)cnc2[nH]ccc12` (relative stereo) [Compound H84, (cis)-3-((5-cyano-1H-pyrrolo[2,3-b]pyridin-4-yl)amino)-N-cyclopropyl-4-ethylpyrrolidin-1-carboxamide], for which the values for the IC50 against JAK3 (4 uM ATP), at JAK2 and against JAK1 were 387 nM, 38 nM and 6.9 nM, respectively. On JAK1, the JAK2/JAK1 is reported as 5.51.

As for `CC[C@@H]1CN(C(=O)NCC(C)(C)C)C[C@@H]1Nc1c(C#N)cnc2[nH]ccc12` (relative stereo) [Compound H86, (cis)-3-((5-cyano-1H-pyrrolo[2,3-b]pyridin-4-yl)amino)-4-ethyl-N-neopentyl-pyrrolidin-1-carboxamide], the IC50 at JAK3 (4 uM ATP) was found to be 169 nM; on JAK2, 29 nM; at JAK1 it was 1.41 nM. Besides, at JAK1, the JAK2/JAK1 was 20.57.

In the case of `CC[C@@H]1CN(CCC#N)C[C@@H]1Nc1c(C#N)cnc2[nH]ccc12` (relative stereo) [Compound H88, 4-(((cis)-1-(2-cyanoethyl)-4-ethylpyrrolidin-3-yl)amino)-1H-pyrrolo[2,3-b]pyridin-5-carbonitrile], the IC50 against JAK3 (4 uM ATP) came to 112 nM; against JAK2, 7.9 nM; at JAK1, 0.86 nM. In addition, the JAK2/JAK1 at JAK1 worked out at 9.19.

`CC[C@@H]1CN(C(=O)NCC(C)(F)F)C[C@@H]1Nc1c(C#N)cnc2[nH]ccc12` (relative stereo) [Compound H89, (cis)-3-((5-cyano-1H-pyrrolo[2,3-b]pyridin-4-yl)amino)-N-(2,2-difluoropropyl)-4-ethylpyrrolidin-1-carboxamide]: the IC50 is 241 nM on JAK3 (4 uM ATP), 19.7 nM against JAK2 and 2.9 nM against JAK1. The JAK2/JAK1 on JAK1 worked out at 6.79.

For the compound `O=C(NCC(F)(F)F)N1C[C@H](Nc2c(C(F)(F)F)cnc3[nH]ccc23)[C@H](C2CC2)C1` (relative stereo) [Compound H91, (cis)-3-cyclopropyl-N-(2,2,2-trifluoroethyl)-4-((5-(trifluoromethyl)-1H-pyrrolo[2,3-b]pyridin-4-yl)amino)pyrrolidin-1-carboxamide], the results for the IC50 at JAK3 (4 uM ATP), at JAK2 and on JAK1 were 96 nM, 18.7 nM and 0.92 nM, respectively. Also, on JAK1, the JAK2/JAK1 was 20.33.

`CC[C@@H]1CC(NC(=O)CCC(F)(F)F)C[C@@H]1Nc1c(C#N)cnc2[nH]ccc12` (stereo in doubt) [Compound H59, N-(3-((5-cyano-1H-pyrrolo[2,3-b]pyridin-4-yl)amino)-4-ethylcyclopentyl)-4,4,4-trifluorobutanamide]: the IC50 against JAK3 (4 uM ATP) came out at 39.6 nM; against JAK2 it was 11.6 nM; against JAK1 it was 2.06 nM. Moreover, the JAK2/JAK1 on JAK1 stood at 5.63.

For `C[C@H](O)C(=O)N1C[C@H]2C[C@@H](N(C)c3c(C#N)cnc4[nH]ccc34)C[C@H]2C1` [Compound H06, (3aR,5R,6aS)-4-{[2-((2S)-2-hydroxypropionyl)-hexahydrocyclopenta[c]pyrrole-5-yl]-methyl-amino}-1H-pyrrolo[2,3-b]pyridin-5-carbonitrile], the figures for the IC50 against JAK3 (4 uM ATP), on JAK2 and at JAK1 were 96 nM, 29.9 nM and 6.68 nM, respectively.

For the compound `CN(c1c(C#N)cnc2[nH]ccc12)[C@H]1C[C@@H](NS(=O)(=O)CCC(F)(F)F)C1` [Compound H10, 4-{[3-(3,3,3-trifluoropropanesulfonamido)-cyclobutyl-1-yl]-methyl-amino}-1H-pyrrolo[2,3-b]pyridin-5-carbonitrile], the half-inhibitory concentration (IC50) was found to be 143 nM against JAK3 (4 uM ATP), 36 nM on JAK2 and 4.98 nM on JAK1.

Take `N#Cc1cnc2[nH]ccc2c1N[C@H]1C[C@@H](NS(=O)(=O)c2cccc(C(F)(F)F)c2)C1` [Compound H13, (cis)-4-{[3-(3-(trifluoromethyl)benzenesulfonamido)-cyclobutyl-1-yl]-amino}-1H-pyrrolo[2,3-b]pyridin-5-carbonitrile]: the IC50 at JAK3 (4 uM ATP) was 58.9 nM; against JAK2 it was 21 nM; against JAK1 it was 2.96 nM. In addition, the JAK2/JAK1 at JAK1 amounted to 7.09.

For `CN(c1c(C#N)cnc2[nH]ccc12)C1CC(NS(=O)(=O)c2ccc(C(F)(F)F)cc2)C1` (stereo not drawn) [Compound H16, (cis)-4-{[3-(4-trifluoromethylbenzenesulfonamido)-cyclobutyl-1-yl]-methyl-amino}-1H-pyrrolo[2,3-b]pyridin-5-carbonitrile], the IC50 on JAK3 (4 uM ATP) is 633 nM; against JAK2, 132 nM; against JAK1, 9.16 nM. Moreover, the JAK2/JAK1 on JAK1 came to 14.41.

For `N#Cc1cnc2[nH]ccc2c1N[C@H]1C[C@@H](NS(=O)(=O)c2ccc(C(F)(F)F)cc2)C1` [Compound H17, (cis)-4-{[3-(4-trifluoromethylbenzenesulfonamido)-cyclobutyl-1-yl]-amino}-1H-pyrrolo[2,3-b]pyridin-5-carbonitrile], the concentration for half-maximal inhibition (IC50) against JAK3 (4 uM ATP) stood at 27 nM; against JAK2, 13 nM; on JAK1 it was 5 nM. Moreover, the JAK2/JAK1 on JAK1 amounted to 2.60.

`COc1nsc(NC(=O)N2C[C@H]3C[C@H](Nc4c(C#N)cnc5[nH]ccc45)C[C@H]3C2)n1` [Compound H20, (3aR,5s,6aS)-5-((5-cyano-1H-pyrrolo[2,3-b]pyridin-4-yl)amino)-N-(3-methoxy-1,2,4-thiadiazole-5-yl)hexahydrocyclopentadiene[c]pyrrole-2(1H)-carboxamide]: the IC50 on JAK3 (4 uM ATP) is 161 nM; at JAK2 it was 36 nM; on JAK1, 5.8 nM.

The record behind these values is US12398141B2 (SHANGHAI SYNERGY PHARMACEUTICAL SCIENCES CO., LTD, priority 2019, dated 2025).
